# Data published in US20240358837A1, “Amorphous Photosensitizing Particles, Methods For The Preparation Thereof, And Methods For The Use Thereof” (priority 2021, published 2024).
# Experiments:
# blood-brain barrier = experiment: Photodynamic opening of the blood-brain barrier (Evans blue) in rats; format: in vivo, rat; settings: low-dose PDT, 80 J/cm^2, 85 mW/cm^2
# Protocol: Sprague-Dawley rats (4-5 weeks old, Envigo) received an intravenous injection of NanoVP (0.25 or 0.5 mg/kg) or 5-aminolevulinic acid (5-ALA, 20 or 125 mg/kg) at 30 min or 4 hours before PDT. PDT parameters, including photosensitizer concentration, drug-light interval, irradiance, and radiant exposure, were selected. At 30 minutes post-photosensitizer injection, rats were anesthetized with isoflurane and secured within a stereotaxic frame.
# During the 30-minute drug-light interval, a craniotomy was performed. The top of the rat head was shaved, and the skin was removed. The periosteum was retracted to the edges of the skull. Using a micro drill (OmniDrill35, WPI), a circle about 4 mm in diameter was sketched into the right parietal bone. Drilling was stopped periodically, and PBS was applied to prevent heating. […]
# PDT was performed by light activation of the exposed brain (NanoVP: 690 nm, 80 or 100 J/cm^2; 5-ALA: 635 nm, 60 or 80 J/cm^2; 40 or 85 mW/cm^2; ML6600, Modulight). At 90 minutes post-PDT, rats received an intravenous injection of Evans blue dye (2%, 4 mL/kg) to determine the blood-brain barrier integrity using imaging and extraction methods In particular, Evans blue was quantified. […] Samples were centrifuged to pellet the tissue, and the optical density of Evans blue within the supernatant at 610 nm was measured on a multi-mode microplate reader. […]
# [1] = non-tumor-bearing animals, 125 mg/kg 5-ALA and 54 J, within 5 days of treatment; cited from earlier work
# [2] = Fluorescence self-quenching (fluorescence in DMSO divided by fluorescence in PBS); format: physicochemical; settings: 0.625-5 μM
# Protocol: The stability of NanoVP particles in PBS at 4° C. was determined by monitoring their hydrodynamic size and polydispersity index using a particle sizer analyzer for up to one year. NanoVP singlet oxygen (^1O2) generation, self-quenching, and drug release were studied in 96-well plates as described previously. NanoVP and singlet oxygen sensor green (SOSG) at 5 μM were mixed and irradiated with 690 nm light (10 J/cm^2, 10 mW/cm^2; ML6600, Modulight). A multi-mode microplate reader (Synergy Neo2, BioTek) acquired fluorescence signals of VP (Excitation/Emission: 435/650-750 nm) or SOSG (Excitation/Emission: 504/525 nm) before and after light irradiation. Self-quenching (FDSMO/FO) is defined as the fluorescence after disruption of the NanoVP using DMSO (FDSMO) divided by the fluorescence of the NanoVP in PBS (FO). Photosensitizer release from NanoVP (de-quenching) was studied by monitoring the gain in VP fluorescence signal in PBS/DMSO buffer (0-100% v/v) at room temperature or in Eagle's Minimum Essential Medium (EMEM, Cellgro) with 0-10% v/v fetal bovine serum (FBS, Gibco) at 37° C.
# Fluorescence photoactivity was defined as the maximal fluorescence intensity (FL) of NC-VP and L-VP in PBS divided by the maximal fluorescence intensity (FL) of NC-VP and L-VP in DMSO. The absorbance spectrums of the constructs over the visible spectrum were determined in PBS and DMSO. […]
# U87 cells = experiment: PDT cell viability (MTT assay) in U87 cells; format: cell-based, human; settings: MTT 24 hours after PDT, 0-5 J/cm^2, 10 mW/cm^2
# Protocol: Cells were cultured overnight in a 35-mm Petri dish or 96-well black wall plates (1-3.3×10^4 cells/cm^2) and then incubated with photosensitizers (i.e., NanoVP, free-form VP, or Liposomal VP; 0.25 μM) for 24 hours. Subsequently, cells were washed twice with PBS and incubated with a photosensitizer free complete medium. Photosensitizer uptake in cells was determined using extraction methods followed by VP fluorescence measurements (Excitation/Emission: 435/700±10 nm, Synergy Neo2, BioTek) or visualized using fluorescence imaging (Lionheart, BioTek) as described previously. PDT was performed by exposing the cells to 690 nm light (0-10 J/cm^2, […], bottom illumination; ML6600, Modulight).
# (§1) At 24 hours after PDT, cell viability was determined using MTT [3-(4,5-dimethylthiazol-2-yl)-2,5-diphenyltetrazolium bromide] assay or neutral red assay (Abcam) following the vendor's protocol. For dark toxicity evaluation, cells were incubated with media containing photosensitizers (0-40 μM) for 72 hours, followed by the MTT assay. The photosensitizer efflux by ATP binding cassette (ABC) transporters was studied in MCF-7 and its multi-drug resistant sublines (MCF-7 TX400 and MCF-7 MX100) by adapting the protocols described herein.
# caspase 3 in U87 cells = experiment: Total and cleaved caspase 3 immunoblotting after PDT; format: cell-based, human; settings: one-hour post light activation
# Protocol: Expressions of total and cleaved caspase 3 were examined by immunoblotting techniques. U87 cells were plated in a 35-mm Petri dish (Falcon) at a density of 2.2×10^4 cells/cm^2. Cells were incubated with 0.25 μM of NanoVP, free-form VP, or Liposomal VP for 24 hours. Cells were washed twice with PBS and irradiated with 690-nm light (10 J/cm^2, 50 mW/cm^2) in a fresh culture medium. At 1 hour after PDT, cell lysates were collected in radioimmunoprecipitation assay (RIPA) buffer supplemented with a 1% protease inhibitor. Protein lysates (22 μg) were separated on a 4-12% precast Bis-Tris gel (NuPAGE) and transferred onto a nitrocellulose membrane. After blocking with Odyssey blocking buffer (Li-COR) for 1 hour, blots were incubated with primary antibody against beta-actin (#3700, cell signaling), caspase 3 (#9662, Cell Signaling,), or cleaved caspase 3 (#9661, Cell Signaling) overnight at 4° C. Blots were washed with 1X Tris-buffered Saline, 0.1% Tween® 20 Detergent (TBST) buffer followed by incubation with IRDye 680RD goat anti-mouse secondary antibody (926-68070, Li-COR) or IRDye 800CW goat anti-rabbit secondary antibody (926-32211, Li-COR) for 1 hour at room temperature based on the supplier's advice. Visualization of protein bands was developed using the LiCor ODYSSEY CLx (Li-COR). β-actin serviced as a loading control. Band intensity was determined using LiCOR ODYSSEY CLx software. PDT-treated samples were normalized to a no-treatment control.
# U87 cancer cells = experiment: Lysosomal damage (neutral red uptake assay) after PDT; format: cell-based, human; settings: 690 nm, 1 J/cm^2, 50 mW/cm^2; 0.25 μM
# Protocol: as §1
fluorescence self-quenching [2],half maximal inhibition concentration (IC50) of PDT (U87 cells) [μM×J/cm^2],Compound,depth at which extravasated Evan Blue is visible in rat brain (blood-brain barrier),mortality [1] [%],cleaved-to-total caspase-3 ratio (caspase 3 in U87 cells),reduction of total (pro) caspase-3 expression (caspase 3 in U87 cells) [%],"increase in cleaved caspase-3 formation (caspase 3 in U87 cells; 10 J/cm^2, 50 mW/cm^2) [fold]",lysosomal integrity (U87 cancer cells)
,,"NCC(=O)CCC(=O)O [5-ALA, 5-aminolevulinic acid]",up to 1 mm,50,,,,
up to 78 fold,0.20,verteporfin [free-form VP],,,~4.4,~50,~2.4,does not affect lysosomal integrity
